Test results as given in patent US11780826B2 (Amgen Inc., priority 2017, dated 2023).

Tested on: Bovine cardiac myofibrils
Test: In vitro model of dose-dependent myofibril ATPase modulation (AC1.4, pyruvate kinase/lactate dehydrogenase-coupled ATPase assay at pCa25)
Format: biochemical
Details: concentration at which ATPase activity was 1.4-fold higher than the bottom of the dose curve, mean of a minimum of two independent tests
How it was run: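 Bovine cardiac myofibrils, detergent-treated; 0.25-1.0 mg/ml. Buffer: K-PIPES 12 mM, MgCl2 2 mM, DTT 1 mM, BSA 0.1 mg/ml, pH 6.80, 22° C; Ca2+ set by EGTA/CaCl2. ATP 1 mM, NADH/PEP-coupled, A340. 4-parameter fit; n≥2.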

Row | Structure (SMILES) | AC1.4 [µM]
1 | CS(=O)(=O)c1cccc(C(=O)N2[C@@H](C(=O)N[C@@H]3CCc4cc(Cl)ccc43)C[C@H]3C[C@H]32)c1 [Example 753, (1R,3R,5R)-N-((1R)-5-chloro-2,3-dihydro-1H-inden-1-yl)-2-(3-(methylsulfonyl)benzoyl)-2-azabicyclo[3.1.0]hexane-3-carboxamide] | 7.42
2 | Nc1ccccc1C(=O)N1[C@@H](C(=O)N[C@@H](c2ccc(C(F)(F)F)cc2F)C2CC2)C[C@H]2C[C@H]21 [Example 755, (1R,3R,5R)-2-(2-aminobenzoyl)-N-((R)-cyclopropyl(2-fluoro-4-(trifluoromethyl)phenyl)methyl)-2-azabicyclo[3.1.0]hexane-3-carboxamide] | 7.5435
3 | CC(O)C(NC(=O)[C@H]1C[C@H]2C[C@H]2N1C(=O)c1cccc(S(C)(=O)=O)c1)c1cc(F)c(Cl)cc1F (stereo partly drawn) [Example 757, (1R,3R,5R)-N-(1-(4-chloro-2,5-difluorophenyl)-2-hydroxypropyl)-2-(3-(methylsulfonyl)benzoyl)-2-azabicyclo[3.1.0]hexane-3-carboxamide] | 7.6005
4 | N#CC1CN(S(=O)(=O)N2CCC[C@H](C(=O)N3CCC[C@@H]3C(=O)NCc3ccccc3)C2)C1 [Example 758, (R)—N-benzyl-1-((S)-1-((3-cyanoazetidin-1-yl)sulfonyl)piperidine-3-carbonyl)pyrrolidine-2-carboxamide] | 7.61
5 | N#CC1CN(S(=O)(=O)c2cccc(C(=O)N3CCC[C@@H]3C(=O)NC3CC(C(F)(F)F)C3)c2)C1 (stereo partly drawn) [Example 759, 1-((3-((3-cyano-1-azetidinyl)sulfonyl)phenyl)carbonyl)-N-(cis-3-(trifluoromethyl)cyclobutyl)-D-prolinamide,1-((3-((3-cyano-1-azetidinyl)sulfonyl)phenyl)carbonyl)-N-(trans-3-(trifluoromethyl)cyclobutyl)-D-prolinamide] | 7.6347
6 | CS(=O)(=O)c1cc(C(=O)N2CCC[C@@H]2C(=O)NC(c2ccc(C(F)(F)F)cc2F)C2CC2)ccn1 (stereo partly drawn) [Example 761, (2R)-N-(cyclopropyl(2-fluoro-4-(trifluoromethyl)phenyl)methyl)-1-(2-(methylsulfonyl)isonicotinoyl)pyrrolidine-2-carboxamide] | 7.696
7 | CC(NC(=O)[C@H]1CCCN1C(=O)[C@H]1CCCN(S(=O)(=O)N2CC(C#N)C2)C1)c1cccc(F)c1F (stereo partly drawn) [Example 763, (2R)-1-((S)-1-((3-cyanoazetidin-1-yl)sulfonyl)piperidine-3-carbonyl)-N-(1-(2,3-difluorophenyl)ethyl)pyrrolidine-2-carboxamide] | 7.879
8 | Cc1ccc(C)c(CNC(=O)[C@H]2CCCN2C(=O)[C@H]2CCCN(S(=O)(=O)N3CC(C#N)C3)C2)c1 [Example 765, 1-(((3S)-1-((3-cyano-1-azetidinyl)sulfonyl)-3-piperidinyl)carbonyl)-N-(2,5-dimethylbenzyl)-D-prolinamide] | 7.9325
9 | CS(=O)(=O)c1cncc(C(=O)N2CC(F)(F)C2C(=O)N[C@@H](c2cc(F)c(C(F)(F)F)cc2F)C2CC2)c1 (stereo partly drawn) [Example 767, N-((R)-cyclopropyl(2,5-difluoro-4-(trifluoromethyl)phenyl)methyl)-3,3-difluoro-1-(5-(methylsulfonyl)nicotinoyl)azetidine-2-carboxamide] | 8.015
10 | N#CC1CN(S(=O)(=O)N2CCC[C@H](C(=O)N3CCC[C@@H]3C(=O)N[C@H](c3ccc(C(F)(F)F)cc3)C(F)(F)F)C2)C1 [Example 768, 1-(((3S)-1-((3-cyano-1-azetidinyl)sulfonyl)-3-piperidinyl)carbonyl)-N-((1R)-2,2,2-trifluoro-1-(4-(trifluoromethyl)phenyl)ethyl)-D-prolinamide] | 8.033
11 | COc1ccc(Cl)cc1CNC(=O)[C@H]1CCCN1C(=O)[C@H]1CCCN(S(=O)(=O)N2CC(C#N)C2)C1 [Example 770, N-(5-chloro-2-methoxybenzyl)-1-(((3S)-1-((3-cyano-1-azetidinyl)sulfonyl)-3-piperidinyl)carbonyl)-D-prolinamide] | 8.1255

More lines, now with the values ahead:

Row | AC1.4 [µM] | Structure (SMILES)
12 | 7.453 | O=C(NC1CN(S(=O)(=O)N2CCC[C@H](C(=O)N3CCC[C@@H]3C(=O)NCc3ccc(C(F)(F)F)cc3)C2)C1)C1CCC1 [Example 754, 1-(((3S)-1-((3-((cyclobutylcarbonyl)amino)-1-azetidinyl)sulfonyl)-3-piperidinyl)carbonyl)-N-(4-(trifluoromethyl)benzyl)-D-prolinamide]
13 | 7.5875 | CS(=O)(=O)c1cccc(C(=O)N2CC[C@@H](F)[C@@H]2C(=O)N[C@@H](c2ccc(C(F)(F)F)cc2)C2CC2)c1 [Example 756, (3R)-N-((R)-cyclopropyl(4-(trifluoromethyl)phenyl)methyl)-3-fluoro-1-(3-(methylsulfonyl)benzoyl)-D-prolinamide]
14 | 7.661 | O=C(NCc1ccc(C(F)(F)F)cc1)[C@H]1CCCN1C(=O)[C@H]1CCCN(S(=O)(=O)N2CC(F)(C(F)(F)F)C2)C1 [Example 760, 1-(((3S)-1-((3-fluoro-3-(trifluoromethyl)-1-azetidinyl)sulfonyl)-3-piperidinyl)carbonyl)-N-(4-(trifluoromethyl)benzyl)-D-prolinamide]
15 | 7.912 | COC(=O)CNS(=O)(=O)c1cccc(C(=O)N2CCC[C@@H]2C(=O)NCc2ccc(C(F)(F)F)cc2)c1 [Example 764, methyl N-((3-(((2R)-2-((4-(trifluoromethyl)benzyl)carbamoyl)-1-pyrrolidinyl)carbonyl)phenyl)sulfonyl)glycinate]
16 | 7.933 | O=C(NCc1ccc(C(F)(F)F)cc1)[C@H]1CCCN1C(=O)[C@H]1CCCN(S(=O)(=O)C2CCOC2)C1 (stereo partly drawn) [Example 766, (2R)-1-((3S)-1-((tetrahydrofuran-3-yl)sulfonyl)piperidine-3-carbonyl)-N-(4-(trifluoromethyl)benzyl)pyrrolidine-2-carboxamide]
17 | 8.078 | CC1CCN1S(=O)(=O)N1CCC[C@H](C(=O)N2CCC[C@@H]2C(=O)NCc2ccc(C(F)(F)F)cc2)C1 (stereo partly drawn) [Example 769, (2R)-1-((3S)-1-((2-methylazetidin-1-yl)sulfonyl)piperidine-3-carbonyl)-N-(4-(trifluoromethyl)benzyl)pyrrolidine-2-carboxamide]
18 | 8.1415 | O=C(NCc1ccc(C(F)(F)F)cc1)[C@H]1CCCN1C(=O)[C@H]1CCCN(S(=O)(=O)N2CC(c3cccc(C(F)(F)F)c3)C2)C1 [Example 771, N-(4-(trifluoromethyl)benzyl)-1-(((3S)-1-((3-(3-(trifluoromethyl)phenyl)-1-azetidinyl)sulfonyl)-3-piperidinyl)carbonyl)-D-prolinamide]
19 | 8.175 | CC[C@@H](NC(=O)[C@H]1CCCN1C(=O)c1cccc(S(C)(=O)=O)c1)c1ccc(Cl)c(F)c1 [Example 772, N-((1R)-1-(4-chloro-3-fluorophenyl)propyl)-1-(3-(methylsulfonyl)benzoyl)-D-prolinamide]
20 | 8.21 | O=C(NCc1ccc(C(F)(F)F)cc1)[C@H]1CCCN1C(=O)[C@H]1CCCN(S(=O)(=O)N2CCC(F)(F)C2)C1 [Example 773, 1-(((3S)-1-((3,3-difluoro-1-pyrrolidinyl)sulfonyl)-3-piperidinyl)carbonyl)-N-(4-(trifluoromethyl)benzyl)-D-prolinamide]
